From patent US5053070A, “Pyrimidine derivatives, preparation processes thereof, herbicide containing the same, and herbicidal compositions containing the same along with other active ingredient” (Mitsui Toatsu Chemicals, Incorporated, priority 1988, dated 1991)

Assays:
Assay type in all cases: in vivo
[1] = tested on: barnyardgrass; experiment: Upland soil application test (Test 2); conditions: 30 g ai/a, soil spray before emergence, 30 days later
Procedure: (§1) Resin-made 1/2500-are pots were filled with the soil of an upland field. After they were fertilized, soybean, peanut and cotton were seeded and 2-3 cm soil covering was applied. Seeds of redroot pigweed, common lambsquarters, barnyardgrass, green foxtail, large crabgrass, foxtail meadow and johnsongrass had been uniformly mixed with the soil. They were allowed to germinate in a green house. One day later (before emergence of weeds), a wettable powder prepared from a predetermined amount of each test compound in a similar manner to the method described in Formulation Example 1 was diluted with water and then sprayed evenly at an application rate equal to 10 l per are onto the surface of the soil by means of a pressure-operated ULV (ultra low volume) sprayer. Influence to the crops and weeds were observed 30 days later. The results are shown in Table 3, in which the degree of damages of each test plant and the degree of injury to each crop were determined by comparing the air-dried weights of the test plant and crop with those of the corresponding plant and crop in untreated pots and are shown in accordance with the following standard: […]

[2] = tested on: common lambsquarters; experiment: Upland soil application test (Test 2); conditions: 30 g ai/a, soil spray before emergence, 30 days later
Procedure: as §1

[3] = tested on: foxtail meadow; experiment: Upland soil application test (Test 2); conditions: 30 g ai/a, soil spray before emergence, 30 days later
Procedure: as §1

[4] = tested on: green foxtail; experiment: Upland soil application test (Test 2); conditions: 30 g ai/a, soil spray before emergence, 30 days later
Procedure: as §1

[5] = tested on: johnsongrass; experiment: Upland soil application test (Test 2); conditions: 30 g ai/a, soil spray before emergence, 30 days later
Procedure: as §1

[6] = tested on: large crabgrass; experiment: Upland soil application test (Test 2); conditions: 30 g ai/a, soil spray before emergence, 30 days later
Procedure: as §1

[7] = tested on: redroot pigweed; experiment: Upland soil application test (Test 2); conditions: 30 g ai/a, soil spray before emergence, 30 days later
Procedure: as §1

[8] = tested on: cotton; experiment: Upland foliar application test (Test 3), crop injury; conditions: 30 g ai/a, foliar spray at 2-3 leaves, 30th day
Procedure: (§2) Resin-made 1/10000-are pots were filled with the soil of an upland field. Redroot pigweed, common lambsquarters, foxtail meadow, johnsongrass, barnyardgrass, green foxtail, large crabgrass, soybean, peanut and cotton were separately seeded and were allowed to germinate in a green house. When each plant grew to the stage of 2-3 leaves, an emulsion formulated from a predetermined amount of each test compound in a similar manner to the method described in Formulation Example 11 was diluted with water to a predetermined dilution rate and then sprayed at an application rate equal to 5 l per are onto the foliage of each plant by means of a pressure-operated ULV (ultra low volume) sprayer. Influence to the crops and weeds were observed on the 30th day after the spray of the herbicides. The results are shown in Table 4 in which the degree of damages of each test plant and the degree of injury to each crop are shown in a similar manner to Test 2.

[9] = tested on: peanut; experiment: as above; conditions: 30 g ai/a, foliar spray at 2-3 leaves, 30th day
Procedure: as §2

[10] = tested on: soybean; experiment: as above; conditions: 30 g ai/a, foliar spray at 2-3 leaves, 30th day
Procedure: as §2

[11] = tested on: rice; experiment: Treatment of soil under submerged condition, pre-emergence (Test 4), injury; conditions: 30 g ai/a granule, 30 days later
Procedure: (§3) 1/5000-are Wagner pots were filled with soil. Seeds or tubers of barnyardgrass, Monochoria vaginalis, bulrush, Sagittaria pygmaea, Cyperus seroylnus and Eleocharis kuroguwai were seeded or planted under submerged condition. Two pairs of rice seedlings (2-3 leaf stage), which had been reared in advance, were transplanted to each pot and were allowed to germinate in a green house. Each pair consisted of two rice seedlings. One day later (before emergence of weeds), each pot was treated with a granule which had been prepared by processing a predetermined amount of the test composition in accordance with a similar method to the method described in Formulation Example 9. The state of emergence of weeds and the state of injury of rice were observed 30 days later.
In the table, the degrees of damages of the test plants and the degrees of injury of rice are shown in a similar manner to Example 2.

[12] = tested on: Sagittaria pygmaea; experiment: Treatment of soil under submerged condition, post-emergence (Test 5); conditions: 30 g ai/a granule, 30 days later
Procedure: as §3, with “serroylnus” for “seroylnus”, “grow” for “germinate”, “When the barnyardgrass grew to two-leaf stage,” for “One day later (before emergence of weeds),”
(§4) In the table, the degrees of damages of the test plants and the degrees of injury of the rice are shown in a similar manner to Example 2.

[13] = tested on: barnyardgrass; experiment: as above; conditions: 30 g ai/a granule, post-emergence (barnyardgrass two-leaf stage), 30 days later
Procedure: as §3, with “serroylnus” for “seroylnus”, “grow” for “germinate”, “When the barnyardgrass grew to two-leaf stage,” for “One day later (before emergence of weeds),”
as §4

[14] = tested on: bulrush; experiment: as above; conditions: 30 g ai/a granule, 30 days later
Procedure: as §3, with “serroylnus” for “seroylnus”, “grow” for “germinate”, “When the barnyardgrass grew to two-leaf stage,” for “One day later (before emergence of weeds),”
as §4

[15] = tested on: rice; experiment: Treatment of soil under submerged condition, post-emergence (Test 5), injury; conditions: 30 g ai/a granule, 30 days later
Procedure: as §3, with “serroylnus” for “seroylnus”, “grow” for “germinate”, “When the barnyardgrass grew to two-leaf stage,” for “One day later (before emergence of weeds),”
as §4

SMILES	Herbicidal effects Barnyardgrass [1]	Herbicidal effects Common lambsquarters [2]	Herbicidal effects Foxtail meadow [3]	Herbicidal effects Green foxtail [4]	Herbicidal effects Johnsongrass [5]	Herbicidal effects Large crabgrass [6]	Herbicidal effects Redroot pigweed [7]	Injury Cotton [8]	Injury Peanut [9]	Injury Soybean [10]	Injury Rice [11]	Herbicidal effects Sagittaria Pygmaea [12]	Herbicidal effects Barnyardgrass [13]	Herbicidal effects Bulrush [14]	Injury Rice [15]
COc1cc(OC)nc(Oc2ccccc2C=NOCc2ccc(C)cc2)n1 [compound 19]	4 (6-10 (Severe damages))	4 (6-10 (Severe damages))	4 (6-10 (Severe damages))	4 (6-10 (Severe damages))	3 (11-40 (Medium damages))	3 (11-40 (Medium damages))	3 (11-40 (Medium damages))	0 (91-100 (No damages))	0 (91-100 (No damages))	0 (91-100 (No damages))	0 (91-100 (No damages))	3 (11-40 (Medium damages))	4 (6-10 (Severe damages))	4 (6-10 (Severe damages))	0 (91-100 (No damages))
C=CCON=Cc1ccccc1Oc1nc(OC)cc(OC)n1 [Compound No. 4]	5 (0-5 (Death))	3 (11-40 (Medium damages))	5 (0-5 (Death))	5 (0-5 (Death))	5 (0-5 (Death))	4 (6-10 (Severe damages))	4 (6-10 (Severe damages))	0 (91-100 (No damages))	0 (91-100 (No damages))	0 (91-100 (No damages))	0 (91-100 (No damages))	3 (11-40 (Medium damages))	5 (0-5 (Death))	4 (6-10 (Severe damages))	0 (91-100 (No damages))
COc1cc(OC)nc(Oc2ccccc2C=NOCc2ccc(Cl)cc2Cl)n1 [Compound No. 17]	3 (11-40 (Medium damages))	4 (6-10 (Severe damages))	3 (11-40 (Medium damages))	3 (11-40 (Medium damages))	3 (11-40 (Medium damages))	3 (11-40 (Medium damages))	3 (11-40 (Medium damages))	0 (91-100 (No damages))	0 (91-100 (No damages))	0 (91-100 (No damages))	0 (91-100 (No damages))	3 (11-40 (Medium damages))	3 (11-40 (Medium damages))	4 (6-10 (Severe damages))	0 (91-100 (No damages))
COc1cc(OC)nc(Oc2ccccc2C=NOCc2ccc(Cl)c(Cl)c2)n1 [compound 18]	4 (6-10 (Severe damages))	4 (6-10 (Severe damages))	3 (11-40 (Medium damages))	4 (6-10 (Severe damages))	3 (11-40 (Medium damages))	3 (11-40 (Medium damages))	3 (11-40 (Medium damages))	0 (91-100 (No damages))	0 (91-100 (No damages))	0 (91-100 (No damages))	0 (91-100 (No damages))	4 (6-10 (Severe damages))	3 (11-40 (Medium damages))	4 (6-10 (Severe damages))	0 (91-100 (No damages))
COc1cc(OC)nc(Oc2ccccc2C=NOCC=Cc2cccc(Cl)c2)n1 [Compound No. 26, 0-(3-chlorocinnamyl)-2-(4,6-dimethoxy-2-pyrimidinyloxy)benzaldxime]	5 (0-5 (Death))	4 (6-10 (Severe damages))	4 (6-10 (Severe damages))	5 (0-5 (Death))	5 (0-5 (Death))	5 (0-5 (Death))	5 (0-5 (Death))	0 (91-100 (No damages))	0 (91-100 (No damages))	0 (91-100 (No damages))	0 (91-100 (No damages))	4 (6-10 (Severe damages))	5 (0-5 (Death))	4 (6-10 (Severe damages))	0 (91-100 (No damages))
COc1cc(OC)nc(Oc2ccccc2C=NOCC=Cc2ccc(C(F)(F)F)cc2)n1 [compound 35]	5 (0-5 (Death))	5 (0-5 (Death))	5 (0-5 (Death))	5 (0-5 (Death))	5 (0-5 (Death))	5 (0-5 (Death))	4 (6-10 (Severe damages))	0 (91-100 (No damages))	0 (91-100 (No damages))	0 (91-100 (No damages))	0 (91-100 (No damages))	3 (11-40 (Medium damages))	5 (0-5 (Death))	4 (6-10 (Severe damages))	0 (91-100 (No damages))
